Earlier results, collected in patent US20240279190A1, “COMPOUNDS FOR MODULATING PLATELET-TYPE 12-(S)-LIPOXYGENASE AND METHODS OF USE FOR SAME” (The Regents of The University of California, priority 2021, published 2024).

Tested on: human islets
Conditions: 10 μM; different batches of human islets; cited from earlier work

ML355
GSIS effect in a similar experiment: comparable results were observed
